Assay in all cases: NCI anticancer screen, dose series, 48 h
Test [1] deals with HL-60(TB) leukemia.
For test [2], the system named is A549 NSCLC.
Test [3] relates to SF-539 CNS.
Test [4] has as its system SK-MEL-5 melanoma.
For test [5], the system named is TK-10 renal.
The test system of test [6] is SNB-19 CNS.
The subject of test [7] is COLO 205 colon.
The test system of test [8] is SK-MEL-2 melanoma.
Test [9] has as its system MALME-3M melanoma.

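Cells were grown in 96-well plates and exposed to each compound for 48 hours at five concentrations; endpoints were interpolated linearly between bracketing concentrations, or set to the highest concentration if not reached. The concentration for 50% growth inhibition is given as GI50. At the TGI there is no net growth.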

For the compound `COc1ccc(/C=C/c2onc3c(=O)n(C)nc(-c4ccccc4)c23)cc1`, the TGI in test [1], in test [2], in [3], in [4], in test [5] and in [6] was above 100 µM each time. Further, in test [7], the TGI is above 100 µM.
Consider `O=CN/C=C/c1ccccc1`, for which the TGI in [1], in test [2], in test [8], in test [3], in test [4] and in [5] was above 100 µM in each case. Further, the TGI in test [6], in test [7] and in test [9] was above 100 µM in each case.
`C[C@]12Cc3conc3C(O)=C1CC[C@@H]1C2CC[C@@]2(C)C1CC[C@@H]2O` (some centres undefined): the TGI was 10.7 µM in [1]; 85.2 µM in test [2]; 21.4 µM in [8]; 44 µM in test [3]; 29.9 µM in test [4]; above 100 µM in test [5]. Besides, the TGI in test [6] is above 100 µM; in test [7], 99.4 µM; in test [9], 87.2 µM.
For `CN1CCN(C)C1c1ccc(C2N(C)CCN2C)cc1`, the GI50 in test [1] was 37.7 µM; in [2], above 100 µM; in [8], above 100000 nM; in test [3], 35.6 µM; in test [4] it was 24.4 µM; in test [5], above 100 µM. In addition, the figures for the GI50 in test [6], in test [7] and in test [9] were 39.5 µM, 23 µM and above 100 µM, respectively. Besides, the TGI was above 100 µM in test [1]; above 100 µM in test [2]; above 100 µM in [8]; above 100 µM in [3]; 89.7 µM in test [4]; above 100 µM in [5]. Also, the values for the TGI in test [6], in [7] and in test [9] were above 100 µM, 65.2 µM and above 100 µM, respectively.
As for `CCCCCCCCCCCCCCCCc1c(C(=O)OC)nc(NC#N)[nH]c1=O`, the TGI in test [1], in [2], in test [8], in [3], in [5] and in [6] was above 25 µM in each case. Besides, the TGI in test [7] and in test [9] was above 25 µM in each case.
On to `COC(=O)/C=C1\CCC2[C@@H](C(=O)CC3[C@]2(C)CCC[C@@]3(C)C(=O)OC)C1C` (some centres undefined), for which the TGI in test [1] is 35.1 µM; in test [2], 52 µM; in test [8], 39.4 µM; in [3], 61.1 µM; in [4], 28 µM; in test [5] it was 53.4 µM. In addition, the TGI in test [6] was above 100 µM; in test [7], 33 µM; in test [9], 54.1 µM.
Take `CCOC(=O)C1CC(=O)C=C2CCCCC21` (centres undefined): the TGI in [1], in [2], in [8], in test [3], in [4] and in [5] was above 100 µM throughout. The TGI in test [6], in test [7] and in test [9] was above 100 µM each time.
As for `CCOC(=O)NC(=O)c1cn(CCSCCOC(=O)NCCCCCCNC(=O)OCCSCCn2cc(C(=O)NC(=O)OCC)c(=O)n(C)c2=O)c(=O)n(C)c1=O`, the TGI is 43 µM in [1]; above 100 µM in [2]; above 100 µM in test [8]; 80.1 µM in [3]; above 100 µM in test [5]; above 100 µM in [6]. The TGI in test [7] is above 100 µM; in test [9] it was 72.2 µM.
`Cn1cnc([N+](=O)[O-])c1Sc1n[nH]c(-c2ccc(Cl)cc2)n1`: the TGI was 77.8 µM in test [2]; 29.9 µM in test [8]; 29.9 µM in test [3]; 29.8 µM in [4]; 43.8 µM in test [5]; 51 µM in test [6]. Besides, the TGI is 30.9 µM in [7] and 26.4 µM in test [9].
With `N#CC(Sc1ccccc1)C(N)=O` (centres undefined), the TGI in [1], in test [2], in [3], in test [4], in test [5] and in test [6] was above 100 µM each time. The TGI in test [7] and in [9] was above 100 µM throughout.
On to `O=S1Nc2cccc(C(F)(F)F)c2S1` (centres undefined), for which the TGI in [1] was 31.8 µM; in test [2] it was above 100 µM; in [8] it was 88.6 µM; in test [3], above 100 µM; in [4] it was above 100 µM; in [5], above 100 µM. Further, the TGI in [6] is above 100 µM; in [7], 35.8 µM; in test [9], above 100 µM.
Turning to `c1cc[c]([Ge]([O]c2cccc3cccnc23)([c]2ccccc2)[c]2ccccc2)cc1`, the GI50 was 5.34 µM in [2]; 2590 nM in [8]; 3.36 µM in test [3]; 7.36 µM in test [5]; 7.15 µM in test [6]; 4.8 µM in [7]. For the same compound, the GI50 in [9] was 10.4 µM. Further, the TGI in test [2] worked out at 21.7 µM; in test [8], 11.7 µM; in test [3], 11.3 µM; in test [5] it was 20.3 µM; in test [6] it was 19.5 µM; in [7], 14.9 µM. The compound also yielded a TGI in test [9] of 22.4 µM.
As to `O=C(O)c1cnc2c(ccc3[nH]cccc32)c1=O`, the TGI in test [1], in test [2], in [8], in test [3], in test [4] and in test [5] was above 100 µM in each case. Also, the TGI in test [6], in test [7] and in [9] was above 100 µM throughout.
`COc1ccc2cc3c4cc(OC)c(OC)cc4ccn3c2c1`: the TGI in [1], in test [2], in [8], in test [3], in test [4] and in test [5] was above 100 µM throughout. In addition, the TGI in test [6], in [7] and in test [9] was above 100 µM each time.
